Assay: Human HepG2 cell viability assay in 384 well format
Format: toxicity, cell-based
Set-up: dose 125 nL, time 70.5 hour; cytotoxicity at 70.5 h: concentration not given beside the values
Details: HepG2 cells, read-out: Inhibition

Row | SMILES | cytotoxicity at 70.5 h [%]
1 | c1cncc(COCC2CN(Cc3ccco3)Cc3nccn3C2)c1 (stereo unspecified) | -9.74
2 | O=C(NC[C@]12COC[C@H]1CN(Cc1cccnc1)C2)C1CCC1 | -4.65
3 | O=C(NCCNC(=O)c1scnc1Cl)c1ccccc1 | -6.16
4 | CN(C)c1ccccc1C(=O)N1C[C@@H](CN2CCOCC2)[C@@H](CO)C1 | -3.02
5 | O=S(=O)(CCCNCCn1cccn1)c1ccccc1 | -14.5
6 | Cc1ccc(NC2CCN(C(=O)C(C(C)C)n3cncn3)CC2)nn1 (stereo unspecified) | -4.96
7 | Cc1nc(C2CCCN(C(=O)c3cnc(C)s3)C2)no1 (stereo unspecified) | 10.2
8 | O=C(c1ccc(F)c(Cl)c1)N1C[C@@H]2CC[C@H](C1)N(Cc1ccccc1)C2 | -5.41
9 | CNS(=O)(=O)CCCN1CCCN(Cc2ccccc2)CC1C (stereo unspecified) | 14.3
10 | Cc1csc(CN2CC[C@H]3C[C@@H](c4noc(C)n4)O[C@@H]3C2)n1 | -0.439
11 | Cc1ccc(C(CNCC2CC2)N2CCOCC2)s1 (stereo unspecified) | 11.7
12 | O=C(Cc1ccc(F)cc1)NCC(O)(c1cccs1)C1CC1 (stereo unspecified) | 13.2
13 | Cc1noc(CN(C)Cc2cnc(N3CCOCC3)nc2)n1 | -6.57
14 | Cc1nc(CN(C)C(=O)c2cccc(CC3CCNCC3)c2)no1 | 26.4
15 | CCNC(=O)NC(C)c1nc(-c2ccc(Br)cc2)no1 (stereo unspecified) | -8.74
16 | Cc1cnccc1-c1cnn(CCNC(=O)c2ccncc2)c1C1CC1 | 17.4
17 | Cc1ccc(CN2CCN(C(=O)c3ccccc3O)C(C)C2=O)cc1 (stereo unspecified) | -18.7
18 | O=C1CN(C(=O)[C@H]2CC[C@]3(CC2)CNC(=O)c2ccccc2O3)CCN1 | -8.28
19 | CCCS(=O)(=O)N1CCC2(CCC(=O)N(CCc3ccncc3)C2)CC1 | -9.81

Row | SMILES | cytotoxicity at 70.5 h [%]
20 | O=C(c1cc[nH]n1)N(Cc1ccc(F)cc1)CC1CC1 | 0.0679
21 | Cc1noc(C)c1-c1cccc(CC2CCN(C(=O)CCC(=O)O)C2)n1 (stereo unspecified) | -11.7
22 | CS(=O)(=O)c1ccc(-c2cc(C3CC3)c(C#N)c(N)n2)cc1 | 0.0408
23 | CC(NC(=O)Nc1ccc(N2CCCC2)nc1)c1nncn1C (stereo unspecified) | 5.27
24 | Cc1noc(C2CCC3(CCN(C(=O)c4ccn(C)n4)CC3)O2)n1 (stereo unspecified) | 10.4
25 | Cc1n[nH]c(C2CN(C(=O)c3cc(C4CC4)[nH]n3)CCO2)n1 (stereo unspecified) | 4.51
26 | CC(C)=CCN1C[C@@H]2CN(C(=O)c3ccc(CO)cc3)C[C@]2(C(=O)O)C1 | -12.2
27 | CNS(=O)(=O)CCn1cc(-c2ccc(NC(C)=O)cc2)nn1 | 3.8
28 | COc1cccc(Cn2cc(C3=CCN(CC(=O)N(C)C)CC3)cn2)c1 | -16.4
29 | Cc1ccc(CNC(=O)COc2ccc3c(c2)OCC3O)cc1 (stereo unspecified) | -7.79
30 | CCCn1ccnc1SCC(=O)NC(Cc1ccccc1)C(C)=O (stereo unspecified) | 1.89
31 | CCn1nc(C)c(CN2CCCC(c3ccc(C(=O)O)cc3)C2)c1C (stereo unspecified) | 24.4
32 | Cc1nn(C)c(C)c1CCNC(C)c1ccc(-n2ccnc2C)cc1 (stereo unspecified) | -2.24
33 | CC(C)NC(=O)N[C@H]1C[C@@H](c2nc(-c3ccncc3)no2)N(C)C1 | -5.9
34 | O=C(O)c1ccccc1C1CCN(C2CCN(c3ccccc3)CC2)C1 (stereo unspecified) | 0.408
35 | CS(=O)(=O)c1ccc(NC(=O)CSc2ccc3c(c2)CCC3)cn1 | -14.4
36 | Cc1nc(C2CCCN(C(=O)c3cc(Cl)c4c(c3)OCO4)C2)no1 (stereo unspecified) | -5.22
37 | Cc1nc(C2CCCNC2)cc(N(Cc2c(C)nn(C)c2C)C2CC2)n1 (stereo unspecified) | -0.0304
38 | Cc1c(CC(=O)N2CCN(C(C)C)CC2)nnn1-c1ccccc1 | 23.6

Row | SMILES | cytotoxicity at 70.5 h [%]
39 | CCCS(=O)(=O)N1CCC2(CCCC(=O)N2C)CC1 | -9.65
40 | Cc1cc(=O)[nH]c(NCCNC(=O)C(c2ccc(F)cc2)N(C)C)n1 (stereo unspecified) | 11.9
41 | O=C1N(CCCc2ccccc2)CCCC1(O)CNCC1CCCCC1 (stereo unspecified) | 6.76
42 | CCOC(=O)COc1cccc(NC(=O)C2COCCO2)c1 (stereo unspecified) | -3.53
43 | Cc1ccc(NCc2ccc(C#N)cc2)cc1-n1cnnn1 | 10.5
44 | COC(=O)c1ccc2c(-c3ccnc(N[C@@H](C)CO)n3)c[nH]c2c1 | -2.09
45 | CCc1cc(N(C)Cc2ncc[nH]2)nc(N2CCOCC2)n1 | -15.9
46 | CN(C)c1cc(C(=O)N2CCCN(c3cccnn3)CC2)ccn1 | -9.96
47 | CS(=O)(=O)NC[C@H]1Cn2c(-c3ccc4c(c3)OCCO4)cnc2CO1 | -13.2
48 | CCc1cccnc1NCc1cnc(N2CCOCC2)nc1 | 20.6
49 | Cc1ccccc1C(=O)N1C[C@@H]2CCN(c3cccnc3)C[C@@H]2C1 | -4.88
50 | CN1CCCC1CNC(=O)CCCOc1ccc(Br)cc1 (stereo unspecified) | -3.72
51 | CC(C)CN1CC(O)CN(S(=O)(=O)c2ccc(F)cc2)CC1=O (stereo unspecified) | -9.29
52 | Cc1nccn1-c1cc(CNC(=O)NCC2CCCO2)ccn1 (stereo unspecified) | -0.7
53 | O=C(CCc1ccc(-n2cnnn2)cc1)Nc1nncs1 | -8.9
54 | COc1cccc([C@@H](C)n2ccnc2-c2cc3n(n2)CCNC3)c1 | -10.2
55 | O=C(NCC1CCC2(CCNCC2)CO1)c1cnccn1 (stereo unspecified) | 9.23
56 | Cc1cc2nccc(C3CCCN(C(=O)c4cnccn4)C3)n2n1 (stereo unspecified) | 0.174

Source: ChEMBL document CHEMBL3507680, “University of Dundee, Gates Library screen for HepG2 cell viability”
